Key:
Staphylococcus aureus = assay type: cell-based
Method: The inventors tested this hypothesis by evaluating the chemotherapeutic properties of Rose Bengal and Erythrosin B on cultures of the bacterium Staphylococcus aureus. […] In both illustrations, test cultures were exposed to the indicated agents at the indicated concentrations for the indicated times; cytotoxicity was subsequently estimated by serial dilution (10×dilution per step) of the treated cell cultures into 96-well plates containing fresh culture media; these samples were then incubated under standard conditions. Viability (e.g., Logs of Growth) for each test culture was then estimated by counting the number of dilution steps resulting in positive cell growth. Cytotoxicity upon exposure to a particular agent is thereby estimated by the reduction in viability relative to unexposed (e.g., control) cultures.

[1] = Toxicology data (LD50), murine administration; assay type: in vivo; conditions: for LD50 p.o.: murine oral (p.o.) administration
[2] = Partition coefficient Kp (n-octanol / phosphate buffered saline); assay type: physicochemical; conditions: n-octanol vs phosphate buffered saline, PBS, pH = 7.4
Method: For example, to a first approximation, an agent's potential for tissue accumulation can be estimated based on the partition coefficient, Kp. This in vitro parameter is purported to have predictive value relating to in vivo agent delivery at the cellular level. […] Kp is determined by measuring the ratio of equilibrium concentrations of an agent in a lipophilic phase (n-octanol) contacted with an aqueous phase (phosphate buffered saline, PBS, pH=7.4).

various murine tumors = conditions: within 24 hours
[3] = Systemic administration of Rose Bengal to obese laboratory mice, tissue accumulation; assay type: in vivo; conditions: aqueous solution, i.p. or p.o.
Description: For example, Rose Bengal's relatively large partition coefficient is indicative of a preference for accumulation in lipophilic tissue, such as cutaneous lipocytes.

[4] = test system: BNL/SV40 liver cell tumor; experiment: Intratumoral/peritumoral injection of 10% Rose Bengal into BNL/SV40 liver cell tumors in nude mice; assay type: in vivo, nude mice
[5] = Tissue pharmacokinetics of Rose Bengal after intraperitoneal injection into tumor-bearing nude mice; assay type: in vivo
Method: Tissue samples (liver, abdominal wall, and tumor) were immediately obtained from the sacrificed mice, homogenized, centrifuged for 10 minutes at 1520×g, and the resulting supernatant collected and analyzed fluorimetrically. […] At the same time, persistent accumulation occurs in tumor tissue, with greater than 50% of maximum measured agent concentration maintained in such tissues for periods in excess of 24 hours.

[6] = test system: recurrent aggressive sarcoma tumor; experiment: Intratumoral injection of 10% Rose Bengal into naturally-occurring sarcoma in a dog; assay type: in vivo
[7] = murine intravenous (i.v.) administration

In the case of `O.O=C([O-])c1ccccc1-c1c2cc(I)c(=O)c(I)c-2oc2c(I)c([O-])c(I)cc12.[Na+].[Na+]` [Erythrosin B], the “Cytotoxic effect (reduction in viability, Logs of Growth)” value (Staphylococcus aureus) is reported as “no significant chemotherapeutic response”, the LD50 i.v. [1, 7] is reported as 370 mg/kg and the LD50 p.o. [1] is reported as >1,000 mg/kg. For the same compound, the “Partition coefficient, Kp” value [2] was 1.9.

In the case of `CC1(C)C(/C=C/C=C/C=C/C=C2\N(CCCCS(=O)(=O)O)c3ccc4ccccc4c3C2(C)C)=[N+](CCCCS(=O)(=O)[O-])c2ccc3ccccc3c21` [Indocyanine Green, reference compound], the “Tumor retention after i.t. administration” value (various murine tumors) is reported as “substantively migrates out of tumors” and the LD50 ([1]; mouse, in vivo, murine intravenous (i.v.) administration) is reported as 60 mg/kg.

For `O=C([O-])c1c(Cl)c(Cl)c(Cl)c(Cl)c1-c1c2cc(Br)c(=O)c(Br)c-2oc2c(Br)c([O-])c(Br)cc12.[Na+].[Na+]` [Phloxine B], the LD50 i.v. [1, 7] was 310 mg/kg, the LD50 p.o. [1] was 310 mg/kg and the “Partition coefficient, Kp” value [2] was 1.1.

In the case of `CC1=C(CCC(=O)O)c2cc3[nH]c(cc4nc(cc5[nH]c(cc1n2)c(C)c5C(C)O)C(C)=C4C(C)O)c(C)c3CCC(=O)O` (stereo not drawn) [Porphyrin HpIX, reference compound], the LD50 p.o. [1] is reported as >1,000 mg/kg and the “Partition coefficient, Kp” value [2] is reported as 1.5.

With `O=C1OC2(c3cc(I)c(O)c(I)c3Oc3c2cc(I)c(O)c3I)c2c(Cl)c(Cl)c(Cl)c(Cl)c21` [Rose Bengal, 4,5,6,7-Tetrachloro-2′,4′,5′,7′-tetraiodofluorescein] the “Tissue accumulation after systemic administration” value [3] was “highly selective accumulation of said agent in certain tissues”, the “Effect on tumor growth” value ([4]; i.t. and p.t. injection of 10% Rose Bengal, over a period of several weeks) was “stasis, with no significant change in tumor volume” and the “Time to clearance from normal tissue (tumor tissue remained stained)” value ([4]; mouse, in vivo) was at most 7 days. The “Effect on normal tissue and adjacent tumor tissue” value ([4]; peritumoral injection alone) was “no significant effect on normal tissue, nor on the adjacent tumor tissue”, the “Retention in normal tissue” value ([4]; peritumoral injection alone, after 24 hours) was “no detectable retention in normal tissue” and the “Time for concentrations in normal tissue (abdominal wall) and liver to diminish to unmeasurable levels” value ([5]; i.p., 50-100 μL of 0.5% Rose Bengal in saline, tumor-bearing nude mice) was at most 24 h. The “Share of maximum measured agent concentration maintained in tumor tissue” value ([5]; tumor tissue, periods in excess of 24 hours after i.p. injection) was “greater than 50%”, the “Cytotoxic effect (reduction in viability, Logs of Growth)” value (Staphylococcus aureus) was “marked chemotherapeutic response that is concentration dependent” and the LD50 p.o. [1] was >1,000 mg/kg. For the same compound, the “Partition coefficient, Kp” value [2] was 11.5, the “Tumor response at follow-up examination” value ([6]; after 19 days) was “further measurable decrease in tumor size” and the “Tumor response at follow-up examination” value ([6]; approximately 5 cc of 10% solution into approximately 20 cc tumor, after five days) was “measurable decrease in tumor density along with significant edema and apparent necrosis of large sections of the tumor”. The “Side-effects in healthy tissue surrounding the tumor” value ([6]; intratumoral injection, dog) was “no significant side-effects”.
